Tests used:
[1] = molecular target: T1, Adenosine receptor A3 (Rattus norvegicus, UniProt P28647); format: cell-based, HEK293
T1 sequence (P28647 whole entry): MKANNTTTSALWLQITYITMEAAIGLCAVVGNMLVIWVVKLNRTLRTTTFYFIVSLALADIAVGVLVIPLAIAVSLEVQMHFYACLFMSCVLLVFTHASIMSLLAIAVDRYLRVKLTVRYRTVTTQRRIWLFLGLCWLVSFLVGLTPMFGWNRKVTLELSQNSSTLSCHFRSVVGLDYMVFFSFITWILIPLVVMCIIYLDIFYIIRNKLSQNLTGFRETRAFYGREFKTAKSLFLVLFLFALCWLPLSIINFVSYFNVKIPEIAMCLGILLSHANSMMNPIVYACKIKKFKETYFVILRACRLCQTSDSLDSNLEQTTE

[2] = molecular target: T2, Adenosine receptor A3 (Mus musculus, UniProt Q61618); format: cell-based, HEK293
T2 sequence (Q61618 whole entry): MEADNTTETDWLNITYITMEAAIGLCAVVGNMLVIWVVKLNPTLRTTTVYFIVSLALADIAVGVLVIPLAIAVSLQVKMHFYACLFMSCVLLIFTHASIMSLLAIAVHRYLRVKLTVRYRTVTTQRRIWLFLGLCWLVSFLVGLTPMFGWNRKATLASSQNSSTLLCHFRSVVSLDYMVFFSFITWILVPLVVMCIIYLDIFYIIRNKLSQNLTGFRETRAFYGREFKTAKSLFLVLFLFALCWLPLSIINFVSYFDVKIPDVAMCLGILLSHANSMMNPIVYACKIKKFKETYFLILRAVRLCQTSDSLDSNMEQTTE

[3] = Lipophilicity, logP of compound; format: physicochemical; settings: octanol/water
[4] = molecular target: Adenosine receptor A2b (Rattus norvegicus, UniProt P29276); assay: Displacement of [3H] DPCPX from rat adenosine A2B receptor expressed in HEK293 cells incubated for 60 mins by radioligand binding assay; format: cell-based
Chain of Adenosine receptor A2b (Rattus norvegicus, UniProt P29276) (P29276 whole entry): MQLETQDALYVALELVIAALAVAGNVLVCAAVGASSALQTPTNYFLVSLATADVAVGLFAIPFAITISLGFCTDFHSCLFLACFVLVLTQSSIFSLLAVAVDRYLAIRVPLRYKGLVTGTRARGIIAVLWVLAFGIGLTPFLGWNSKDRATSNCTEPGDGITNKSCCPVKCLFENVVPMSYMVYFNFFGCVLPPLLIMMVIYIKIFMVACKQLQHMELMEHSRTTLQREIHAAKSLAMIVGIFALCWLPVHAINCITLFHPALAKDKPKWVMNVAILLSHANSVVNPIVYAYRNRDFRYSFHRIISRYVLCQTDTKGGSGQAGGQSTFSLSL

[5] = molecular target: Adenosine receptor A2b (Mus musculus, UniProt Q60614); assay: Displacement of [3H] DPCPX from mouse adenosine A2B receptor expressed in HEK293 cells incubated for 60 mins by radioligand binding assay; format: cell-based
Chain of Adenosine receptor A2b (Mus musculus, UniProt Q60614) (Q60614 whole entry): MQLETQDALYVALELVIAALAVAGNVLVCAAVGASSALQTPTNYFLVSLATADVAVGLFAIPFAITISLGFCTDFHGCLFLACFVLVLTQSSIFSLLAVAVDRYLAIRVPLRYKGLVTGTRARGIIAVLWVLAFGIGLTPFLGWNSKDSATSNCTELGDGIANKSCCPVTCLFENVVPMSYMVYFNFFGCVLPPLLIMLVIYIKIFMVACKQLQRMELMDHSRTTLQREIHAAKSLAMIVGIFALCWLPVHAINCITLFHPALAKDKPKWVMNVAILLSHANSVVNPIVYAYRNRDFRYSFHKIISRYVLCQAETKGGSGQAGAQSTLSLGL

[6] = molecular target: Adenosine receptor A2b (Homo sapiens, UniProt P29275); assay: Displacement of [3H] DPCPX from human adenosine A2B receptor expressed in HEK293 cells incubated for 60 mins by radioligand binding assay; format: cell-based
Chain of Adenosine receptor A2b (Homo sapiens, UniProt P29275) (P29275 whole entry): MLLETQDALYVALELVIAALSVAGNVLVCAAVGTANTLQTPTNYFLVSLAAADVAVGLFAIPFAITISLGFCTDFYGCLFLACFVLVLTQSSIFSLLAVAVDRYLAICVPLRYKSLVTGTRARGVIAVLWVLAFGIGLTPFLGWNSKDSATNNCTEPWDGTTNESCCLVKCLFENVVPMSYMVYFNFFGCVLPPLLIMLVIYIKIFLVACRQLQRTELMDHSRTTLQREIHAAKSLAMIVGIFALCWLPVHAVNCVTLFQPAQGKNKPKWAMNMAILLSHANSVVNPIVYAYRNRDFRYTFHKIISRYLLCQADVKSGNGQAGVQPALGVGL

[7] = molecular target: Adenosine receptor A2a (Mus musculus, UniProt Q60613); assay: Displacement of [3H] ZM241385 from mouse adenosine A2A receptor expressed in HEK293 cells incubated for 60 mins by radioligand binding assay; format: cell-based
Chain of Adenosine receptor A2a (Mus musculus, UniProt Q60613) (Q60613 whole entry): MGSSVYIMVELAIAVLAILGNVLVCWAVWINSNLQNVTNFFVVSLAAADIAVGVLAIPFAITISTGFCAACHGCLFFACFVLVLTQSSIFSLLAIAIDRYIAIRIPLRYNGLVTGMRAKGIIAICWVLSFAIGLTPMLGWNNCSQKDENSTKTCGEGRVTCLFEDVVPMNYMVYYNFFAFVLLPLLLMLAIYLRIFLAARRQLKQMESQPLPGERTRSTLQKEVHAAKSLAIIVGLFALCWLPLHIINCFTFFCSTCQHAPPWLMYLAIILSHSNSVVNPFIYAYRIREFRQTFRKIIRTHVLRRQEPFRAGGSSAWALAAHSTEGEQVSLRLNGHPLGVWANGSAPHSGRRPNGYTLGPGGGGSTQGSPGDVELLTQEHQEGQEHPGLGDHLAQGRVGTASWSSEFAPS

[8] = molecular target: Adenosine receptor A2a (Rattus norvegicus, UniProt P30543); assay: Displacement of [3H] ZM241385 from rat adenosine A2A receptor expressed in HEK293 cells incubated for 60 mins by radioligand binding assay; format: cell-based
Chain of Adenosine receptor A2a (Rattus norvegicus, UniProt P30543) (P30543 whole entry): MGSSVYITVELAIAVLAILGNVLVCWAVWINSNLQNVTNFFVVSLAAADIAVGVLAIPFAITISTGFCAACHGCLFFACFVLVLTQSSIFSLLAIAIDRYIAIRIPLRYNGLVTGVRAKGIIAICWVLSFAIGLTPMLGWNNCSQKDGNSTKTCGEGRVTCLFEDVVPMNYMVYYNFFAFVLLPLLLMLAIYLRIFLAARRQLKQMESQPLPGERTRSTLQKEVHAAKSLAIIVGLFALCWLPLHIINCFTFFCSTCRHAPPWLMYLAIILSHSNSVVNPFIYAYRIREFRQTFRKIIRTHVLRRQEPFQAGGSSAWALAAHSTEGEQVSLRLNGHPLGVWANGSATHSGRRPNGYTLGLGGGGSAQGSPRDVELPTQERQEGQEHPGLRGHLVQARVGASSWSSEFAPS

[9] = molecular target: T3, Adenosine receptor A2a (Homo sapiens, UniProt P29274); assay: Displacement of [3H] ZM241385 from human adenosine A2A receptor expressed in HEK293 cells incubated for 60 mins by radioligand binding assay; format: cell-based
T3 sequence (P29274 whole entry): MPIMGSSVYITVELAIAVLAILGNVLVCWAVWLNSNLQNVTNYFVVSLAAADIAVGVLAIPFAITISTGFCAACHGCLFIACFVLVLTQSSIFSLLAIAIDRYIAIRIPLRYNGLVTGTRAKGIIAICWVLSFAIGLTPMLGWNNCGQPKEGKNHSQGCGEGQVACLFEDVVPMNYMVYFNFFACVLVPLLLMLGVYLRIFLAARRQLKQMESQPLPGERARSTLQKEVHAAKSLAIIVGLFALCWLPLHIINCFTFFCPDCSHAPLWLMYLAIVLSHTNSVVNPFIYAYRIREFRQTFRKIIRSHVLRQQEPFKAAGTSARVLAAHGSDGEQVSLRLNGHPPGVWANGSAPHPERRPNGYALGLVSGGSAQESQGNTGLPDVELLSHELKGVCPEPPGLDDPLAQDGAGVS

[10] = molecular target: Adenosine receptor A1 (Rattus norvegicus, UniProt P25099); assay: Displacement of [3H] DPCPX from rat adenosine A1 receptor expressed in HEK293 cells incubated for 60 mins by radioligand binding assay; format: cell-based
Chain of Adenosine receptor A1 (Rattus norvegicus, UniProt P25099) (P25099 whole entry): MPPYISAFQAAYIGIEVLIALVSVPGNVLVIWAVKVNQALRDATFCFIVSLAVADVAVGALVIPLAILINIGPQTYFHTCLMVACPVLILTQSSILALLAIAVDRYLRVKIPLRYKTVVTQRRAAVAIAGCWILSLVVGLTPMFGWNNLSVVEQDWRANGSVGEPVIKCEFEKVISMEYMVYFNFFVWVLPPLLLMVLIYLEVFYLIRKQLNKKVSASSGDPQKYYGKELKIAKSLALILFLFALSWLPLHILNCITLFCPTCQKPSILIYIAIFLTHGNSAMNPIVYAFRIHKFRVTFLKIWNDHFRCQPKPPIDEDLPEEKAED

[11] = molecular target: T4, Adenosine receptor A1 (Mus musculus, UniProt Q60612); assay: Displacement of [3H] DPCPX from mouse adenosine A1 receptor expressed in HEK293 cells incubated for 60 mins by radioligand binding assay; format: cell-based
T4 sequence (Q60612 whole entry): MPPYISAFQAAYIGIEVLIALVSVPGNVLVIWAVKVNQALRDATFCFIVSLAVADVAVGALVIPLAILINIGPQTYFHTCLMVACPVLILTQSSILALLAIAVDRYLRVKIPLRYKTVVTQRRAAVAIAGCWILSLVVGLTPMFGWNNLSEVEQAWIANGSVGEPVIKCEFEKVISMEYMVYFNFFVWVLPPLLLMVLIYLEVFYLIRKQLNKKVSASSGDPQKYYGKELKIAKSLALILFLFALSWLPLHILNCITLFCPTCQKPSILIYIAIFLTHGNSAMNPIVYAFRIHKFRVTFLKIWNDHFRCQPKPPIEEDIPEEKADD

[12] = molecular target: T5, Adenosine receptor A1 (Homo sapiens, UniProt P30542); assay: Displacement of [3H] DPCPX from human adenosine A1 receptor expressed in HEK293 cells incubated for 60 mins by radioligand binding assay; format: cell-based
T5 sequence (P30542 whole entry): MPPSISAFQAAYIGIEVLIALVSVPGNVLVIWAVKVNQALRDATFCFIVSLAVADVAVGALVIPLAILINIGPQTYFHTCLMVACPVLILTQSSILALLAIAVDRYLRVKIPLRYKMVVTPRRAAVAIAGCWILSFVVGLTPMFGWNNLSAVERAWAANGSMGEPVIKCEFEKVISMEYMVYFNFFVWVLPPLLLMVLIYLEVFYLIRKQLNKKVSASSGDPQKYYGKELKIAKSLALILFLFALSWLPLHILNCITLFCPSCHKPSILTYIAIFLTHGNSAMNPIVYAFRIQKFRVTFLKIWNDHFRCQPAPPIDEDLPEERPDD

[13] = molecular target: Muscarinic acetylcholine receptor M5 (Homo sapiens, UniProt P08912); assay: Binding affinity to human M5 receptor by radioligand binding assay
Chain of Muscarinic acetylcholine receptor M5 (P08912 whole entry): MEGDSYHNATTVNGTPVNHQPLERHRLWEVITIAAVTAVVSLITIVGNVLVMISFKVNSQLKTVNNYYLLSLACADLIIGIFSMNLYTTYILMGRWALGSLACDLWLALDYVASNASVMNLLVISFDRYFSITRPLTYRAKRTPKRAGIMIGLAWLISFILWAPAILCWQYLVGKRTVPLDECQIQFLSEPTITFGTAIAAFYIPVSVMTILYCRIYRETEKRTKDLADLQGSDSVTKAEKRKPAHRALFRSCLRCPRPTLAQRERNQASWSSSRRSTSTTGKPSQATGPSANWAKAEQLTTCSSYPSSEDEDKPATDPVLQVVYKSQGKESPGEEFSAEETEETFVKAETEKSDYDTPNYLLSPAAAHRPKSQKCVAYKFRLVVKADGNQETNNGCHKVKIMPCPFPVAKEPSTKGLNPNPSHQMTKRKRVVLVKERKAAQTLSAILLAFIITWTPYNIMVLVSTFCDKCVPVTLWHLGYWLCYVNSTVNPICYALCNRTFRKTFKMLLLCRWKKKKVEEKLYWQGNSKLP

[14] = molecular target: 5-hydroxytryptamine receptor 2A (Homo sapiens, UniProt P28223); assay: Binding affinity to human 5-HT2A receptor by radioligand binding assay
Chain of 5-hydroxytryptamine receptor 2A (P28223 whole entry): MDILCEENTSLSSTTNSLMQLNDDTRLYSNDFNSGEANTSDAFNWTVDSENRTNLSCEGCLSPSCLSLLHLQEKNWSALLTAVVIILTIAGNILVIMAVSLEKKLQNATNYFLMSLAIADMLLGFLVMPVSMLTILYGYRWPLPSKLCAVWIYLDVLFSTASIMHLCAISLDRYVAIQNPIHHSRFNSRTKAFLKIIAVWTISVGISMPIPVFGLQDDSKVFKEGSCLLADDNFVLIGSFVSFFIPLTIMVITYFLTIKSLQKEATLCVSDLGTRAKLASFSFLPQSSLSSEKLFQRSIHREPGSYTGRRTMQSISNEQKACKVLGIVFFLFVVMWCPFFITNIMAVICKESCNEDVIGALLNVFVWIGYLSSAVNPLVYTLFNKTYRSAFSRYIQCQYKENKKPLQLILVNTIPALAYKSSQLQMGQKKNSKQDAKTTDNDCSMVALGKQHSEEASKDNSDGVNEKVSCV

[15] = molecular target: 5-hydroxytryptamine receptor 2C (Homo sapiens, UniProt P28335); assay: Binding affinity to human 5-HT2C receptor by radioligand binding assay
Chain of 5-hydroxytryptamine receptor 2C (P28335 whole entry): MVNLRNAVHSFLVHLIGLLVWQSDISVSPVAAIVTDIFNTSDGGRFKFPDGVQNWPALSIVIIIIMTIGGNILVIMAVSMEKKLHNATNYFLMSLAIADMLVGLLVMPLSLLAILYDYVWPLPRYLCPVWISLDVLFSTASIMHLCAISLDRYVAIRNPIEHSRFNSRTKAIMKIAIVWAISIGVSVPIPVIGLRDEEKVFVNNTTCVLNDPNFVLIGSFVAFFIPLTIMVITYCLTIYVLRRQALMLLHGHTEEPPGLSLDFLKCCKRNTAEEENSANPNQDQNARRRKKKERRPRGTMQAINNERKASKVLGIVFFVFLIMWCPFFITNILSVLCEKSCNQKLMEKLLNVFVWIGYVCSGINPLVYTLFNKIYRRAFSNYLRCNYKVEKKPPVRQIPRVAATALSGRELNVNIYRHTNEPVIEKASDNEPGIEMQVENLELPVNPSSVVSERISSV

[16] = C0 in Sprague-Dawley rat plasma at 1 mg/kg, iv measured after 8 hrs by LC-MS/MS analysis; format: ADME, organism-based
[17] = C0 in Sprague-Dawley rat brain at 1 mg/kg, iv measured after 8 hrs by LC-MS/MS analysis; format: ADME, organism-based
[18] = Drug concentration in Sprague-Dawley rat plasma assessed as average concentration at 1 mg/kg, iv measured after 8 hrs by LC-MS/MS analysis; format: ADME, organism-based; settings: in vivo
[19] = Drug concentration in Sprague-Dawley rat brain concentration assessed as average concentration at 1 mg/kg, iv measured after 8 hrs by LC-MS/MS analysis; format: ADME, organism-based; settings: in vivo
[20] = Clearance in Sprague-Dawley rat plasma at 1 mg/kg, iv measured after 8 hrs by LC-MS/MS analysis; format: ADME, organism-based
[21] = Volume of distribution in Sprague-Dawley rat plasma at 1 mg/kg, iv measured after 8 hrs by LC-MS/MS analysis; format: ADME, organism-based
[22] = Volume of distribution in Sprague-Dawley rat brain at 1 mg/kg, iv measured after 8 hrs by LC-MS/MS analysis; format: ADME, organism-based
[23] = Half life in Sprague-Dawley rat plasma at 1 mg/kg, iv measured after 8 hrs by LC-MS/MS analysis; format: ADME, organism-based
[24] = Half life in Sprague-Dawley rat brain at 1 mg/kg, iv measured after 8 hrs by LC-MS/MS analysis; format: ADME, organism-based
[25] = Fraction unbound in Sprague-Dawley rat plasma assessed as unbound fraction at 1 mg/kg, iv measured after 8 hrs by LC-MS/MS analysis; format: ADME, organism-based
[26] = Fraction unbound in Sprague-Dawley rat brain assessed as unbound fraction at 1 mg/kg, iv measured after 8 hrs by LC-MS/MS analysis; format: ADME, organism-based
[27] = molecular target: T6, Adenosine receptor A3 (Homo sapiens, UniProt P0DMS8); format: cell-based, HEK293
T6 sequence (P0DMS8 whole entry): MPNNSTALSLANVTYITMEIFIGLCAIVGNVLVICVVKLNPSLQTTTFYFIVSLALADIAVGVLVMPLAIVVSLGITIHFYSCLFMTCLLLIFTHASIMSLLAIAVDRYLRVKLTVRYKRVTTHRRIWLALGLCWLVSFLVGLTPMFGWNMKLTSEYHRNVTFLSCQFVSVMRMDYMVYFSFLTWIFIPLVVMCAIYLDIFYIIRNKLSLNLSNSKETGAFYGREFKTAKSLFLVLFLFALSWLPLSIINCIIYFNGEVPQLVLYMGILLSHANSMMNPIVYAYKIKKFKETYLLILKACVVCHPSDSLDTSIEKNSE

[28] = molecular target: T7, Adenosine receptor A1 (Homo sapiens) (UniProt P30542); assay: Displacement of [3H] DPCPX from human adenosine A1 receptor expressed in HEK293 cells at 10 uM incubated for 60 mins by radioligand binding assay; format: cell-based
T7 sequence (whole entry): T5 sequence (P30542 whole entry)

[29] = molecular target: T1, Adenosine receptor A3; assay: Binding affinity to rat adenosine A3 receptor measured by radioligand binding assay
[30] = molecular target: T3, Adenosine receptor A2a; assay: Displacement of [3H] ZM241385 from human adenosine A2A receptor expressed in HEK293 cells at 10 uM incubated for 60 mins by radioligand binding assay; format: cell-based
[31] = molecular target: T2, Adenosine receptor A3; assay: Binding affinity to mouse adenosine A3 receptor measured by radioligand binding assay

Cc1cc(C)cc(-c2nc(NC(=O)c3cccnc3)sc2-c2ccncc2)c1
Ki [1]: 8.53 nM
Ki [2]: 9.61 nM
logP [3]: 4.68
Ki [4]: 163 nM
Ki [5]: 189 nM
Ki [6]: 230 nM
Ki [7]: 830 nM
Ki [8]: 1150 nM
Ki [9]: 121 nM
Ki [10]: 333 nM
Ki [11]: 411 nM
Ki [12]: 162 nM
Ki [13]: 3700 nM
Ki [14]: 960 nM
Ki [15]: 790 nM
C0 at 8 h [16]: 628 ng/mL
C0 at 8 h [17]: 760 ng/mL
Cave [18]: 52 ng/mL
Cave [19]: 95 ng/mL
clearance [20]: 40 mL/min/kg
Vd [21]: 1.8 L/kg
Vd [22]: 1.9 L/kg
half-life [23]: 48 min
half-life [24]: 42 min
fraction unbound at 8 h [25]: 0.03
fraction unbound at 8 h [26]: 0.03

Cc1cc(C)cc(-c2nc(NC(=O)c3cncc(Br)c3)sc2-c2ccncc2)c1
Ki [27]: 26.6 nM
Ki [9]: > 1000 nM
inhibition [28]: 38%

CNC(=O)[C@@]12C[C@@H]1[C@@H](n1cnc3c(NCc4cccc(I)c4)nc(Cl)nc31)[C@H](O)[C@@H]2O
Kd [29]: 0.17 nM

Cc1cc(C#Cc2ccc(Cl)s2)cc(-c2nc(NC(=O)c3cccnc3)sc2-c2ccncc2)c1
Ki [27]: 80.7 nM
inhibition [30]: -0.5%
inhibition [28]: 21%

CC[C@@H]1CN2C(=O)N(C)c3nc(-c4ccccc4)[nH]c3C2=N1
Ki [29]: > 10000 nM
Ki [31]: 6360 nM

CCCn1cc2c(nc(NC(=O)Nc3ccc(OC)cc3)n3nc(-c4ccco4)nc23)n1
Ki [29]: > 10000 nM
Ki [31]: > 10000 nM

Source: ChEMBL document CHEMBL5038675, “Selective A3 Adenosine Receptor Antagonist Radioligand for Human and Rodent Species” (ACS Med Chem Lett, 2022)
